Values quoted from earlier work, collected in patent US7329495B2 (Board of Regents, the University of Texas System, priority 2004, dated 2008).

Target: KIT protein (c-KIT K642E) (Homo sapiens, UniProt P10721, K642E)
Conditions: human GIST cell line, homozygous exon 13 c-KIT K642E

KIT protein (c-KIT K642E), sequence (P10721 26-976 K642E): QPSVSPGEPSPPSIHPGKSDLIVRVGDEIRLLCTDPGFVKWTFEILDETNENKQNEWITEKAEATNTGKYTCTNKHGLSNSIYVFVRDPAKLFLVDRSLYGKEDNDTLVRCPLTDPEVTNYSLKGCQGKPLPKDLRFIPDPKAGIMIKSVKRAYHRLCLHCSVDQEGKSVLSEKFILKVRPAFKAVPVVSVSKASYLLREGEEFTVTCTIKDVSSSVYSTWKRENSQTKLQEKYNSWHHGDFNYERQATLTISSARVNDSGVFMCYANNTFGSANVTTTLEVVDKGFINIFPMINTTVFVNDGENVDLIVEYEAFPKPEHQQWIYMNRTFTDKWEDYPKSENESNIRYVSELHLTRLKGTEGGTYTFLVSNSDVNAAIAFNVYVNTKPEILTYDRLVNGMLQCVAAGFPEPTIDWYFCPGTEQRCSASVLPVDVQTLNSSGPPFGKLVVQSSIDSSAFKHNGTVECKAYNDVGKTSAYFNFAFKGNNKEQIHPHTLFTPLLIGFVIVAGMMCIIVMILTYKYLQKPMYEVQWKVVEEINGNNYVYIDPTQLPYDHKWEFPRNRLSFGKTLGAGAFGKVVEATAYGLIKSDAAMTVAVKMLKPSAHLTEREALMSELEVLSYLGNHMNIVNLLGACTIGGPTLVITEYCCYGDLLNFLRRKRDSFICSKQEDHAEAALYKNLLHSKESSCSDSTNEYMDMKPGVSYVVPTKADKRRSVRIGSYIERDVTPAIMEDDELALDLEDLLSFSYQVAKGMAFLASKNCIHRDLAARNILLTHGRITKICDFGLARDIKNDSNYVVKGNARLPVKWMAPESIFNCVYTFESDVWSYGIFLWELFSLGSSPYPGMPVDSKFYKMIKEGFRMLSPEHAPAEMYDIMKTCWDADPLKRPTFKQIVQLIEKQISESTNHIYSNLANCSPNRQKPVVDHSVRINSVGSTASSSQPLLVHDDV

constitutive KIT tyrosine phosphorylation after introducing STI571 to the cells: abolished
SMILES: Cc1ccc(NC(=O)c2ccc(CN3CCN(C)CC3)cc2)cc1Nc1nccc(-c2cccnc2)n1 [imatinib]
